Data reported in ChEMBL document CHEMBL4483862, “Open-source discovery of chemical leads for next-generation chemoprotective antimalarials” (2018).

Tested on: Plasmodium berghei
Experiment: Luciferase/luciferin-expressing antifolate-resistant parasites were used to infect a culture of HepG2 cells that were pre-incubated with compounds. Infected hepatocytes emit light due to the luciferase reaction. Assay results are presented as the percent inhibition of light emission compared to control. […]
Assay type: functional
Settings: sporozoite; for IC90: read-out: LUCIFERASE INFECTION ASSAY - IC90

| Compound | IC90 | also measured |
| --- | --- | --- |
| c1ccc(-c2cc3nc(NCC4CC4)nc(NCC4CCCCC4)c3s2)cc1 | 3.98 µM | IC50 (HEPG2TOX_HILL_SLOPE 9.69, HEPG2TOX_R_SQUARED 0.573, PBLUC_HILL_SLOPE 14.3, PBLUC_R_SQUARED 0.374, read-out: LUCIFERASE INFECTION ASSAY - IC50): 3.41 µM |
| Cn1cc(-c2cn3c(-c4ccc(O)cc4)cnc3cn2)cn1 | > 11.3 µM | IC50 (HEPG2TOX_HILL_SLOPE 9.44, HEPG2TOX_R_SQUARED 0.67, PBLUC_HILL_SLOPE 2.21, PBLUC_R_SQUARED 0.503, read-out: LUCIFERASE INFECTION ASSAY - IC50): 6.85 µM |
| Cc1cc(=O)n2nc(-c3ccc(C(C)(C)C)cc3)cc2[nH]1 | 2.42 µM | IC50 (HEPG2TOX_HILL_SLOPE 9.72, HEPG2TOX_R_SQUARED 0.89, PBLUC_HILL_SLOPE 2.59, PBLUC_R_SQUARED 0.666, read-out: LUCIFERASE INFECTION ASSAY - IC50): 1.04 µM |
| Cc1cccc(C(=O)Nc2nc3ccc(C)cn3c2C(=O)NCC(C)C)c1 | 3.75 µM | IC50 (HEPG2TOX_HILL_SLOPE 9.43, HEPG2TOX_R_SQUARED 0.373, PBLUC_HILL_SLOPE 11.3, PBLUC_R_SQUARED 0.193, read-out: LUCIFERASE INFECTION ASSAY - IC50): 3.09 µM |
| C[S+]([O-])c1ccc(C(F)(F)F)cc1[N+](=O)[O-] (centres undefined) | > 13 µM | IC50 (HEPG2TOX_HILL_SLOPE 9.53, HEPG2TOX_R_SQUARED 0.815, PBLUC_HILL_SLOPE 1.65, PBLUC_R_SQUARED 0.298, read-out: LUCIFERASE INFECTION ASSAY - IC50): 11.1 µM |
| Cc1cc(NC(=O)C(C)n2nc(-c3cccs3)c3ccccc3c2=O)no1 (centres undefined) | > 10 µM | IC50 (HEPG2TOX_HILL_SLOPE 9.69, HEPG2TOX_R_SQUARED 0.542, read-out: LUCIFERASE INFECTION ASSAY - IC50): > 10 µM |
| Cc1cn2nc(N(C)Cc3ccc(N(C)C)cc3)sc2n1 | > 10 µM | IC50 (HEPG2TOX_HILL_SLOPE 9.75, HEPG2TOX_R_SQUARED 0.561, PBLUC_HILL_SLOPE 7.25, PBLUC_R_SQUARED 0.0375, read-out: LUCIFERASE INFECTION ASSAY - IC50): 7.97 µM |
| COc1ccccc1C(=O)c1cnc(Nc2cccc(-c3ccccc3)c2)[nH]1 | > 8.93 µM | IC50 (HEPG2TOX_HILL_SLOPE 9.5, HEPG2TOX_R_SQUARED 0.78, PBLUC_HILL_SLOPE 12, PBLUC_R_SQUARED 0.218, read-out: LUCIFERASE INFECTION ASSAY - IC50): 8.03 µM |
| Cc1nnc(Sc2nc(CN3CCCCC3)nc3sc4c(c23)CCC4)s1 | > 10 µM | IC50 (HEPG2TOX_HILL_SLOPE 9.43, HEPG2TOX_R_SQUARED 0.839, read-out: LUCIFERASE INFECTION ASSAY - IC50): > 10 µM |
| O=S(=O)(Nc1ccc(Cl)cc1)c1ccc2nc(-c3ccccn3)[nH]c2c1 | 8.29 µM | IC50 (HEPG2TOX_HILL_SLOPE 9.44, HEPG2TOX_R_SQUARED 0.935, PBLUC_HILL_SLOPE 6.04, PBLUC_R_SQUARED 0.808, read-out: LUCIFERASE INFECTION ASSAY - IC50): 5.77 µM |
| COc1cc(-c2ccc3ncc(-c4cccc(Cl)c4)n3n2)cc(OC)c1OC | 5.69 µM | IC50 (HEPG2TOX_HILL_SLOPE 9.46, HEPG2TOX_R_SQUARED 0.786, PBLUC_HILL_SLOPE 7.92, PBLUC_R_SQUARED 0.391, read-out: LUCIFERASE INFECTION ASSAY - IC50): 4.31 µM |
| O=C(Nc1ccc(C(F)(F)F)cc1)Nc1sccc1Cl | 7.98 µM | IC50 (HEPG2TOX_HILL_SLOPE 9.59, HEPG2TOX_R_SQUARED 0.7, PBLUC_HILL_SLOPE 5.14, PBLUC_R_SQUARED 0.452, read-out: LUCIFERASE INFECTION ASSAY - IC50): 5.21 µM |
| Cc1cc(=O)nc(N/N=C/c2c(C)nn(-c3cccc(C(F)(F)F)c3)c2Cl)[nH]1 | 8.03 µM | IC50 (HEPG2TOX_HILL_SLOPE 9.49, HEPG2TOX_R_SQUARED 0.952, PBLUC_HILL_SLOPE 2.17, PBLUC_R_SQUARED 0.422, read-out: LUCIFERASE INFECTION ASSAY - IC50): 2.91 µM |
| CCN1C/C(=C/c2cc(Cl)c(OC(C)C)c(OC)c2)C(=O)/C(=C/c2cc(Cl)c(OC(C)C)c(OC)c2)C1 | 3.46 µM | IC50 (HEPG2TOX_HILL_SLOPE 9.62, 4.07, HEPG2TOX_R_SQUARED 0.967, 0.574, PBLUC_HILL_SLOPE 16.5, 9.41, PBLUC_R_SQUARED 0.287, 0.470, read-out: LUCIFERASE INFECTION ASSAY - IC50): 2.85 µM |
| Oc1c(Cl)cc(Cl)cc1/C=N/NC(=S)NC1CCCC1 | 3.83 µM | IC50 (HEPG2TOX_HILL_SLOPE 9.72, HEPG2TOX_R_SQUARED 0.599, PBLUC_HILL_SLOPE 20.7, PBLUC_R_SQUARED 0.654, read-out: LUCIFERASE INFECTION ASSAY - IC50): 3.45 µM |
| CC(C)NC(=O)/C(C#N)=C/c1cccc(Cl)c1Cl | > 10 µM | IC50 (HEPG2TOX_HILL_SLOPE 9.7, HEPG2TOX_R_SQUARED 0.0223, read-out: LUCIFERASE INFECTION ASSAY - IC50): > 10 µM |

| Compound | IC90 | also measured |
| --- | --- | --- |
| CC(C)(C)c1ccc(C(=O)Nc2ccc(N3CCCS3(=O)=O)cc2)cc1[N+](=O)[O-] | 5.03 µM | IC50 (HEPG2TOX_HILL_SLOPE 9.4, HEPG2TOX_R_SQUARED 0.847, PBLUC_HILL_SLOPE 1.92, PBLUC_R_SQUARED 0.511, read-out: LUCIFERASE INFECTION ASSAY - IC50): 1.6 µM |
| FC(F)(F)c1cc(/C=N/Nc2c(Cl)cc(C(F)(F)F)cc2Cl)cc(C(F)(F)F)c1 | 6.93 µM | IC50 (HEPG2TOX_HILL_SLOPE 9.76, HEPG2TOX_R_SQUARED 0.862, PBLUC_HILL_SLOPE 9.4, PBLUC_R_SQUARED 0.388, read-out: LUCIFERASE INFECTION ASSAY - IC50): 5.49 µM |
| FC(F)(F)Oc1ccc(-c2ccc(OCc3ccccn3)nc2)cc1 | > 9.53 µM | IC50 (HEPG2TOX_HILL_SLOPE 9.63, HEPG2TOX_R_SQUARED 0.944, read-out: LUCIFERASE INFECTION ASSAY - IC50): > 9.53 µM |
| Oc1ccc(Br)cc1/C=N/NC(=S)NC1CC2CCC1C2 (centres undefined) | 8.93 µM | IC50 (HEPG2TOX_HILL_SLOPE 9.58, HEPG2TOX_R_SQUARED 0.779, PBLUC_HILL_SLOPE 13.3, PBLUC_R_SQUARED 0.143, read-out: LUCIFERASE INFECTION ASSAY - IC50): 7.57 µM |
| Cc1cc(C(C)(C)C)cc(C)c1CCNC(=O)C1CCN(c2cnccn2)CC1 | > 10 µM | IC50 (HEPG2TOX_HILL_SLOPE 9.49, HEPG2TOX_R_SQUARED 0.929, PBLUC_HILL_SLOPE 9.04, PBLUC_R_SQUARED 0.464, read-out: LUCIFERASE INFECTION ASSAY - IC50): 8.99 µM |
| Cc1ccccc1CNC(=O)c1ccc(NC(=O)c2ccco2)s1 | > 10 µM | IC50 (HEPG2TOX_HILL_SLOPE 9.39, HEPG2TOX_R_SQUARED 0.787, PBLUC_HILL_SLOPE 2.67, PBLUC_R_SQUARED 0.485, read-out: LUCIFERASE INFECTION ASSAY - IC50): 5.78 µM |
| Cn1c(=O)c2cc3cc(Cl)ccc3nc2c2c(=O)n(-c3ccccc3)c(=O)n(-c3ccccc3)c21 | > 6.86 µM | IC50 (HEPG2TOX_HILL_SLOPE 9.44, HEPG2TOX_R_SQUARED 0.957, PBLUC_HILL_SLOPE 32.7, PBLUC_R_SQUARED 0.0582, read-out: LUCIFERASE INFECTION ASSAY - IC50): 6.86 µM |
| CC(c1ccc(-n2cncn2)cc1)N(C)c1ncnc2ccsc12 (centres undefined) | > 10 µM | IC50 (HEPG2TOX_HILL_SLOPE 9.54, HEPG2TOX_R_SQUARED 0.431, PBLUC_HILL_SLOPE 1.32, 1.56, PBLUC_R_SQUARED 0.780, 0.216, read-out: LUCIFERASE INFECTION ASSAY - IC50): 3.71 µM |
| CCn1nc(C)cc1-c1nnc(Cc2ncc([N+](=O)[O-])s2)n1CCCOC | 5.21 µM | IC50 (HEPG2TOX_HILL_SLOPE 9.43, HEPG2TOX_R_SQUARED 0.891, PBLUC_HILL_SLOPE 6.15, PBLUC_R_SQUARED 0.786, read-out: LUCIFERASE INFECTION ASSAY - IC50): 3.65 µM |
| Oc1cccc(-c2ccnc3n[nH]c(-c4ccc5c(c4)OCO5)c23)c1 | 6.14 µM | IC50 (HEPG2TOX_HILL_SLOPE 9.48, HEPG2TOX_R_SQUARED 0.645, PBLUC_HILL_SLOPE 1.2, PBLUC_R_SQUARED 0.596, read-out: LUCIFERASE INFECTION ASSAY - IC50): 0.984 µM |
| CCCCc1c(O)cc2n(c1=O)-c1ccc(Cl)cc1C2(C)C | > 10.4 µM | IC50 (HEPG2TOX_HILL_SLOPE 9.65, HEPG2TOX_R_SQUARED 0.788, PBLUC_HILL_SLOPE 4.5, PBLUC_R_SQUARED 0.532, read-out: LUCIFERASE INFECTION ASSAY - IC50): 7.82 µM |
| COc1ccc(-c2cnc3ccc(NCc4ccc(C)cc4C)nn23)cn1 | 9.01 µM | IC50 (HEPG2TOX_HILL_SLOPE 9.76, HEPG2TOX_R_SQUARED 0.857, PBLUC_HILL_SLOPE 10.1, PBLUC_R_SQUARED 0.466, read-out: LUCIFERASE INFECTION ASSAY - IC50): 7.25 µM |
| N#C/C(=C(/Oc1ccc(Cl)cc1Cl)C(F)(F)F)c1ccccc1 | > 9.21 µM | IC50 (HEPG2TOX_HILL_SLOPE 9.57, HEPG2TOX_R_SQUARED 0.894, PBLUC_HILL_SLOPE 12.7, PBLUC_R_SQUARED 0.611, read-out: LUCIFERASE INFECTION ASSAY - IC50): 8.77 µM |
| CC(C)(C)c1csc(NC(=O)Nc2ccc(Cl)cc2)n1 | > 10.7 µM | IC50 (HEPG2TOX_HILL_SLOPE 9.42, HEPG2TOX_R_SQUARED 0.969, PBLUC_HILL_SLOPE 14.5, PBLUC_R_SQUARED 0.489, read-out: LUCIFERASE INFECTION ASSAY - IC50): 9.21 µM |
| COC(=O)c1occc1/C=C/C(=O)C12CC3CC(CC(C3)C1)C2 | 7.04 µM | IC50 (HEPG2TOX_HILL_SLOPE 9.64, HEPG2TOX_R_SQUARED 0.941, PBLUC_HILL_SLOPE 4.67, PBLUC_R_SQUARED 0.564, read-out: LUCIFERASE INFECTION ASSAY - IC50): 4.4 µM |
| O=C(NCCOc1cccc(Oc2ccccc2)c1)c1cccs1 | > 9.72 µM | IC50 (HEPG2TOX_HILL_SLOPE 9.69, HEPG2TOX_R_SQUARED 0.418, PBLUC_HILL_SLOPE 2.28, PBLUC_R_SQUARED 0.595, read-out: LUCIFERASE INFECTION ASSAY - IC50): 4.13 µM |
